The results in this text go back to patent US20190202823A1, “N-SULFONYLATED PYRAZOLO[3,4-b]PYRIDIN-6-CARBOXAMIDES AND METHOD OF USE” (AbbVie S.à.r.l., priority 2015, published 2019).

Experiment [1] concerns the target T1, ΔF508-CFTR (Homo sapiens, UniProt P13569, DEL508-508).
T1 construct: host or cells: CFBE41o- cells, doxycycline-inducible expression
The experiment is described as follows: CFTR cell surface levels using HRP-tagged ΔF508-CFTR expressing CFBE cells, in the presence of a co-corrector. The conditions noted are these: HRP-tagged ΔF508-CFTR CFBE41o- cells, with 3 μM co-corrector; for % Activation: positive control 3 μM co-corrector. In kind it is cell-based. The text has this:
(§1) Measuring CFTR Cell Surface Levels Using HRP-Tagged ΔF508-CFTR Expressing CFBE Cells
(§2) The HRP-tagged ΔF508-CFTR cell assay measures the expression of CFTR-ΔF508 at the plasma membrane. CFTR-ΔF508 has a folding defect leading to absence of protein at the plasma membrane. This assay is used to evaluate the capacity of compounds to increase the expression of CFTR-ΔF508 at the plasma membrane. […] When HRP-tagged ΔF508-CFTR is present at the plasma membrane, the HRP enzyme activity can be measured. The amount of CFTR-ΔF508 that can be rescued to the plasma membrane is correlated with the amount of functional enzyme that can be measured.
(§3) There are several ways to measure the capacity of compounds to rescue CFTR-ΔF508 to the plasma membrane; either compounds are evaluated on their own and the impact on plasma membrane levels is measured or compounds are evaluated in combination with a co-corrector, i.e. a compound that rescues CFTR-ΔF508 to the plasma membrane but rescue can be enhanced by addition of compounds due to a complementary mode of action.
Activity of Compounds in Combination with Co-Corrector:
On day four, 10 μL of test compounds diluted in PBS (phosphate buffered saline) were added to the plates at a final DMSO concentration of 0.1%. In order to measure compound synergy with a co-corrector, 3 μM co-corrector (3-[(2R,4R)-4-({[1-(2,2-difluoro-1,3-benzodioxol-5-yl)cyclopropyl]carbonyl}amino)-7-methoxy-3,4-dihydro-2H-chromen-2-yl]benzoic acid) was added along with test compounds. All compound plates contained negative controls (DMSO) and positive controls (3 μM co-corrector). Cell plates were incubated at 33° C., 5% CO2 for 20 hours. […] After incubation for 15 minutes in the dark, the chemiluminescence was measured using a plate reader (EnVision®, Perkin Elmer). Raw data were normalized to percentage activity values using the equation: 100×(Sample−Negative control)/(Positive control−Negative Control).

Experiment [2] deals with T1, ΔF508-CFTR. The experiment is described as follows: CFTR cell surface levels using HRP-tagged ΔF508-CFTR expressing CFBE cells, intrinsic corrector capacity. The experiment is classed as cell-based. The arrangement: % Activation: concentration or dose not given beside the values. The conditions noted are these: HRP-tagged ΔF508-CFTR expressing CFBE41o- cells; compounds alone (intrinsic corrector capacity); 20 hours at 33° C.
Excerpt: as §1, §2, §3
Activity of Compounds for their Intrinsic Corrector Capacity:
On day four, L test compounds diluted in PBS were added to the plates at a final DMSO concentration of 0.1%. All compound plates contained negative controls (DMSO) and positive controls ([…] corrector, 3-[(2R,4R)-4-({[1-(2,2-difluoro-1,3-benzodioxol-5-yl)cyclopropyl]carbonyl}amino)-7-methoxy-3,4-dihydro-2H-chromen-2-yl]benzoic acid). Cell plates were incubated at 33° C., 5% CO2 for 20 hours. […] After incubation for 15 minutes in the dark, chemiluminescence was measured using a plate reader (EnVision®, Perkin Elmer). Raw data were normalized to percentage activity values using the equation: 100×(Sample−Negative control)/(Positive control−Negative Control).

T1 sequence (P13569 with tags, fused parts or gaps DEL508-508): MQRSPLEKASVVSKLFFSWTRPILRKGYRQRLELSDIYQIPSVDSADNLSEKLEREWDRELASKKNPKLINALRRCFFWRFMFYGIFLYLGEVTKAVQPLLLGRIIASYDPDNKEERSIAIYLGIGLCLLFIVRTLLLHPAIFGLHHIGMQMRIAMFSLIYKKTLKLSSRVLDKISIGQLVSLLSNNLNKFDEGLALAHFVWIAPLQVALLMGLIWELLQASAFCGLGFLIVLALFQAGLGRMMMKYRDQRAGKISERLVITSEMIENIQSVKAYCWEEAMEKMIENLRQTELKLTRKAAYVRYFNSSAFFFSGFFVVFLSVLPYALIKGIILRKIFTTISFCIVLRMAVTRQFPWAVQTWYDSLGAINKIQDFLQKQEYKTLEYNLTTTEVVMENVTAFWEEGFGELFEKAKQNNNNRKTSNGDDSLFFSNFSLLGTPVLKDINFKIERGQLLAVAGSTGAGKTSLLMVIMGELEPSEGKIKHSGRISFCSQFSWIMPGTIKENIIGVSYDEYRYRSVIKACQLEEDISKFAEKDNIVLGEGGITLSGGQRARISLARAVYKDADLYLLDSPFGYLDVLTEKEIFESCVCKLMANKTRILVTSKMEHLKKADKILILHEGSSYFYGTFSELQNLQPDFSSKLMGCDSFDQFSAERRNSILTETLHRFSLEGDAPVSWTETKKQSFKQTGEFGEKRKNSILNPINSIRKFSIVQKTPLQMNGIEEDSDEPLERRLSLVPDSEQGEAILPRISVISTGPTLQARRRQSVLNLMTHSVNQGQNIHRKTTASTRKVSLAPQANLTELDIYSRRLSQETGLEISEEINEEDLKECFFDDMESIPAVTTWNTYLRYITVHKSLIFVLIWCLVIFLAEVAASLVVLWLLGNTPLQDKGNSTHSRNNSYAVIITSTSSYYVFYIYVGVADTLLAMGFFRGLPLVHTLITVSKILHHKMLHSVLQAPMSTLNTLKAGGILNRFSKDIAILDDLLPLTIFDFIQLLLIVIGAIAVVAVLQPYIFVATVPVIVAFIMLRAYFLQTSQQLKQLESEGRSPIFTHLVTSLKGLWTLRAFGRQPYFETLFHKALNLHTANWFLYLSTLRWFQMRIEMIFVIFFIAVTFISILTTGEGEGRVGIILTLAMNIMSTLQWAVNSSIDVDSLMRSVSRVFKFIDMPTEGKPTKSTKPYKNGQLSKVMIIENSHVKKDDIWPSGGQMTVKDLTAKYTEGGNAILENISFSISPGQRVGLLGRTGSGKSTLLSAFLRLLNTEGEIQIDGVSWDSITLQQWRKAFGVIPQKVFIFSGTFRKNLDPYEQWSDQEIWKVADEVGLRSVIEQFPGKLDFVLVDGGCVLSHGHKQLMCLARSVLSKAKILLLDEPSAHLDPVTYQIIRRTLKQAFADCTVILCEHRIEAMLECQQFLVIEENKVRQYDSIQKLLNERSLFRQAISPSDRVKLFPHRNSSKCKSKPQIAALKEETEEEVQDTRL

For the compound `CN(C)S(=O)(=O)NC(=O)c1cc(C2CCN(CCC(F)(F)F)CC2)c2c(C3CCC3)nn(-c3ccc(F)cc3)c2n1` [compound 604], the “% Activation” value on ΔF508-CFTR [1] is on record as 269.3%.

Take `Cc1nn(C2CCCCC2)c2nc(C(=O)NS(C)(=O)=O)cc(-c3ccc(N4CCOCC4)nc3)c12` [compound 47]: at ΔF508-CFTR [1], the EC50 – broadly, the concentration that produces a half-maximal response – stood at 1.6 µM.

Turning to `CS(=O)(=O)NC(=O)c1cc(OCCCN2CCCCC2)c2c(C3CCC3)nn(-c3ccccc3)c2n1` [compound 314], the EC50 on ΔF508-CFTR [1] is 0.692 µM.

As for `COCCS(=O)(=O)NC(=O)c1cc(-c2ccc(CN3CCOCC3)cc2)c2c(OC(C)C)nn(C3CCCCC3)c2n1` [compound 405], the “% Activation” value on ΔF508-CFTR [2] was determined as 181.2%.

For `CC(C)Oc1nn(C2CCCCC2)c2nc(C(=O)NS(=O)(=O)N(C)C)cc(-c3ccc(CN4CCOCC4)cc3)c12` [compound 406], the “% Activation” value at ΔF508-CFTR [2] is reported as 160.8%.

For `CC(C)Oc1nn(C2CCCCC2)c2nc(C(=O)NS(C)(=O)=O)cc(-c3ccc(C4(C#N)CCN(C)CC4)cc3)c12` [compound 639], at ΔF508-CFTR [1], the EC50 turned out to be 0.0744 µM and the “% Activation” value was determined as 464.55%. On ΔF508-CFTR [2], the “% Activation” value came to 238.35% and the EC50 was determined as 0.132 µM.

As for `CN(C)S(=O)(=O)NC(=O)c1cc(C2CCN(CC3CC3)CC2)c2c(C3CCC3)nn(-c3ccc(F)cc3)c2n1` [compound 613], on ΔF508-CFTR [2], the EC50 was 10 µM.

`COCC1CCN(Cc2cc(C(=O)NS(=O)(=O)N(C)C)nc3c2c(C2CCC2)nn3-c2ccc(F)cc2)CC1` [compound 521]: at ΔF508-CFTR [2], the EC50 is 10 µM.

As for `COCCS(=O)(=O)NC(=O)c1cc(N2CCC(N3CCOCC3)CC2)c2c(C3CCC3)nn(-c3ccc(F)cc3)c2n1` [compound 407], on ΔF508-CFTR [2], the “% Activation” value came out at 125.95%.

On to `CC(c1ccc(-c2cc(C(=O)NS(=O)(=O)N(C)C)nc3c2c(C2CCC2)nn3C2CCCCC2)cc1)N1CCOCC1` (centres unmarked) [compound 543], for which, at ΔF508-CFTR [1], the EC50 is 0.0393 µM.

`CN(C)S(=O)(=O)NC(=O)c1cc(N2CCC(N3CCC(C#N)C3)CC2)c2c(C3CCC3)nn(-c3ccc(F)cc3)c2n1` (centres unmarked) [compound 561]: the EC50 on ΔF508-CFTR [1] was 0.042 µM.
